{"source": "patent US12130283B2", "about": "“Methods, systems and compositions for functional in vitro cellular models of mammalian systems” (University of Central Florida Research Foundation, Inc., priority 2012, dated 2024)", "key": {"[1]": {"tested_on": "patterned neonatal cardiomyocytes", "assay": "Field potential recordings from patterned neonatal cardiomyocytes on microelectrode arrays", "assay_type": "cell-based, rat", "source_text": "However, commercial MEAs have electrodes spaced too close to allow effective measurement of conduction velocity, so the long linear surface chemistry patterns developed in [Natarajan 2011] allowed for measurement of conduction velocity in the spontaneously beating patterned cardiomyocytes effectively.\nThe μCCA in FIG. 4 required the use of liver cells and cardiac myocytes. In FIG. 4GB, pump is 43, other tissues compartment is 44, and bubble is 45. The neonatal cardiac myocyte cultures are obtained from two-day-old rat pups by previously published methods [Dhir 2009; Natajaran 2011]. Cardiac myocytes were plated at a density of […] on the patterned MEAs. Approximately 10 days were required for the cultures to establish themselves. Cardiac myocytes were stable on the patterns for at least 30 days. A silicon rubber gasket was used to isolate the tissue chambers on the μCCA prior to assembly to allow optimization of culture conditions in each chamber. After 10 days, cells were introduced to the liver compartment. […]\nThe cardiac myocytes were cultured on patterned metal MEAs (Planar 10 μm electrodes, 200 μm separation. Multichannel-systems). […] After a 30 minute incubation period, APs were detected and recorded using built in functions of the Multichannel System software. […] The data was further analyzed using software written using Matlab and Clampfit (Axon instruments)."}, "colon cancer": {"tested_on": "colon cancer", "details": "cited from earlier work"}, "[2]": {"details": "in vivo; cited from earlier work"}, "cultured cardiomyocytes": {"tested_on": "cultured cardiomyocytes", "assay": "Spontaneous firing rate of cultured cardiomyocytes on patterned MEA (FIG. 14F)", "assay_type": "cell-based, human", "source_text": "The disclosed systems are based on human cardiac myocytes. As described herein, the incorporation of a functional cardiac system based on patterned cardiac cells integrated with microelectrode assays enabled the measurement of several cardiac parameters including conduction velocity, peak amplitude and spontaneous frequency, QT interval, and relative refractory period (which is related to triangulation). […] As shown in FIGS. 14A-F, cardiac function can be mimicked or simulated using a component comprising a microcantilever detection system (14A) or a patterned MEA (microelectrode array), FIG. 14D. […] Spontaneous or electrical stimulation-evoked force generation of cardiac myocytes was measured based on optical or electrical detection of cantilever-bending. […] The sensor detected the displacement of the laser beam caused by changes in the position of the cantilever. […] Peak contraction force and force-contraction velocity relationships were calculated based on the geometry of the cantilevers and the thickness of cultured cardiac myocytes (determined from immunostaining data). Compounds (such as norepinephrine, verapamil, and sotalol) were applied using traditional methods to the medium and possible changes in force or force-velocity relationship were detected and analyzed using standard statistical methods. […]"}}, "data": [{"smiles": "C[C@@H]1CN(c2c(F)c(N)c3c(=O)c(C(=O)O)cn(C4CC4)c3c2F)C[C@H](C)N1", "note": "[sparfloxacin]", "values": [{"measurement": "responsiveness of the patterned cardiac system", "setting": "[1]", "value": "responsive"}]}, {"smiles": "O=c1[nH]c(=O)n(C2CCCO2)cc1F", "note": "(stereo not drawn) [Tegafur]", "values": [{"measurement": "optimal uracil to Tegafur ratio", "setting": "colon cancer; maximizing the concentration of 5-FU in the tumor relative to that in the blood", "value": "4 to 1"}]}, {"smiles": "CC1(C)C(C=C(Cl)Cl)C1C(=O)OCc1cccc(Oc2ccccc2)c1", "note": "(stereo not drawn) [cis-permethrin]", "values": [{"measurement": "toxicity of cis isomers relative to trans isomers", "setting": "[2]", "value": "about ten times more toxic"}]}, {"smiles": "NC[C@H](O)c1ccc(O)c(O)c1", "note": "[norepinephrine]", "values": [{"measurement": "effect on spontaneous firing rates", "setting": "cultured cardiomyocytes", "value": "elicits alteration of spontaneous firing rates"}]}, {"smiles": "O=c1cc[nH]c(=O)[nH]1", "note": "[uracil]", "values": [{"measurement": "effect on the toxicity of Tegafur", "setting": "colon cancer", "value": "enhances the toxicity of Tegafur"}]}, {"smiles": "CCCCCCCO", "note": "[1-Heptanol]", "values": [{"measurement": "conduction velocity (CV) after Heptanol exposure", "setting": "[1]; between electrodes 84 and 52, CV before addition of the drug 0.22 m/sec", "value": 0.011, "unit": "m/sec"}]}]}
